Experimental data: publication PMC6745501, “Plant photoreceptors and their signaling components compete for COP1 binding via VP peptide motifs” (The EMBO Journal, 2019)
Values joined by “and” are separate entries in the source; they are usually repeats but may differ in a detail not shown here. Equal values may be shown once.

Tests used:
[1] = target: T1, COP1^Lys422Ala WD40 domain (Arabidopsis thaliana, UniProt P43254, K422A); experiment: biochemical; format: binding; settings: for N (stoichiometry of binding), VP peptide vs. COP1^Lys422Ala: peptide into COP1^Lys422Ala, 25°C, ± standard deviation
T1 construct: His10-Twin-Strep with TEV site (N, cleaved yes); made in house; host or cells: Spodoptera frugiperda Sf9 insect cells (baculovirus, modified pFastBac)
T1 sequence (P43254 349-675 K422A): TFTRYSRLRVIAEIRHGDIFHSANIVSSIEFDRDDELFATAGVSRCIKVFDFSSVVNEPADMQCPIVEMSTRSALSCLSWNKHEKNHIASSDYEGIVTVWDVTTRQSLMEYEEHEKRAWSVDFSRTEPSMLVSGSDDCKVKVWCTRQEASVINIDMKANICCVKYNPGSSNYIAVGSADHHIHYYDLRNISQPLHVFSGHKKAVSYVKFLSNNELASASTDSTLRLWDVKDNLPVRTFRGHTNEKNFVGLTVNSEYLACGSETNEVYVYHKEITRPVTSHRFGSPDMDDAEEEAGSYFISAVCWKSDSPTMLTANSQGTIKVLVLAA
Description: (§1) All experiments were performed in a buffer containing 150 mM NaCl, 20 mM HEPES 7.4, and 2 mM BME. […] The peptides were centrifuged at 14,000 × g for 10 min, and only the supernatant was used. The dissolved peptide concentrations were calculated based upon their absorbance at 280 nm and their corresponding molar extinction coefficient. […] Experiments were performed at 25°C and a stirring speed of 1,000 rpm on an ITC200 instrument (GE Healthcare). All data were processed using Origin 7.0 and fit to a one‐site binding model after background buffer subtraction.

[2] = target: T2, Arabidopsis COP1^349–675 WD40 domain (Arabidopsis thaliana, UniProt P43254); experiment: Isothermal titration calorimetry (ITC) versus the COP1 WD40 domain; format: binding; settings: for N (stoichiometry of binding), VP peptide vs. COP1 WD40 domain (WT): peptide into COP1, 25°C, one-site binding model, ± standard deviation
T2 construct: His10-Twin-Strep with TEV site (N, cleaved yes); made in house; host or cells: Spodoptera frugiperda Sf9 insect cells (baculovirus, modified pFastBac)
T2 sequence (P43254 349-675): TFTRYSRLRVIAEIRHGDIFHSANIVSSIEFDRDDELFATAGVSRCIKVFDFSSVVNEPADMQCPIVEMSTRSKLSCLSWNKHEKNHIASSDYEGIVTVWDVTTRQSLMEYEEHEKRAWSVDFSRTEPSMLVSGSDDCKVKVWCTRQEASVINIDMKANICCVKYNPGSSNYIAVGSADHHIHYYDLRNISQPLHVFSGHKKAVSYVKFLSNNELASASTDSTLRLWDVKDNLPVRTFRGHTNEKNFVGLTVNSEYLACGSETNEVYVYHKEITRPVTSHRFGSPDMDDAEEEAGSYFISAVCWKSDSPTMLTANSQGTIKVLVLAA
Description: All experiments were performed in a buffer containing 150 mM NaCl, 20 mM HEPES 7.4, and 2 mM BME. Peptides were synthesized and delivered as lyophilized powder (Peptide Specialty Labs GmbH) and dissolved directly in buffer. The peptides were centrifuged at 14,000 × g for 10 min, and only the supernatant was used. […] Experiments were performed at 25°C and a stirring speed of 1,000 rpm on an ITC200 instrument (GE Healthcare). All data were processed using Origin 7.0 and fit to a one‐site binding model after background buffer subtraction.

[3] = target: T3, COP1^Tyr441Ala WD40 domain (Arabidopsis thaliana, UniProt P43254, Y441A); format: binding; settings: ITC, peptide into COP1^Tyr441Ala, 25°C; ± standard deviation
T3 construct: His10-Twin-Strep with TEV site (N, cleaved yes); made in house; host or cells: Spodoptera frugiperda Sf9 insect cells (baculovirus, modified pFastBac)
T3 sequence (P43254 349-675 Y441A): as the sequence (P43254 349-675 K422A) above, with A74K, Y93A counted along it
Description: as §1

[4] = target: COP1 WD40 domain; experiment: Grating-coupled interferometry (GCI) binding kinetics versus the COP1 WD40 domain; set-up: species or system Arabidopsis; settings: ligand COP1 (2000 pg/mm2), analyte in the absence of UV-B (ground state), highest concentration 2 μM, 1:1 binding model, read-out: Kd (dissociation constant), - UV-B
Description: For CRY2 activation, proteins were diluted to their final assay concentrations (as indicated in the figure legends) in Eppendorf tubes and exposed to 10 min of fluorescent light on ice.
The Creoptix WAVE system (Creoptix AG), a label‐free surface biosensor, was used to perform GCI experiments. All experiments were performed on 2PCH or 4PCH WAVEchips (quasi‐planar polycarboxylate surface; Creoptix AG). After a borate buffer conditioning (100 mM sodium borate pH 9.0, 1 M NaCl; Xantec), COP1 (ligand) was immobilized on the chip surface using standard amine‐coupling: 7 min activation [1:1 mix of 400 mM N‐(3‐dimethylaminopropyl)‐N′‐ethylcarbodiimide hydrochloride and 100 mM N‐hydroxysuccinimide (both Xantec)], injection of COP1 (10 μg/ml) in 10 mM sodium acetate pH 5.0 (Sigma) until the desired density was reached, and final quenching with 1 M ethanolamine pH 8.0 for 7 min (Xantec). […] Blank injections were used for double referencing and a dimethyl sulfoxide (DMSO) calibration curve for bulk correction. Analysis and correction of the obtained data were performed using the Creoptix WAVEcontrol software (applied corrections: X and Y offset; DMSO calibration; double referencing), and a one‐to‐one binding model or a heterogenous ligand model with bulk correction was used to fit all experiments.

[5] = tested on: COP1 WD40 domain; experiment: Analytical size-exclusion chromatography binding assay; set-up: species or system Arabidopsis; settings: Superdex 200 Increase 10/300 GL, ~4 μM per protein
Description: 500 μl of the respective protein solution or a mixture (~ 4 μM per protein) was loaded sequentially onto the column, and elution at 0.75 ml/min was monitored by UV absorbance at 280 nm.

## Ac-EDQMVPSITY-NH2 [CRY1 peptide]
[1]; ITC
  N (stoichiometry of binding), VP peptide vs. COP1^Lys422Ala: 0.98 ± 0.1
[2]; ITC
  N (stoichiometry of binding), VP peptide vs. COP1 WD40 domain (WT): 0.99 ± 0.3

## Ac-EIRRVPEFGGY-NH2 [HY5 peptide]
[1]
  Kd: 23 ± 10 µM
[1]; ITC
  N (stoichiometry of binding), VP peptide vs. COP1^Lys422Ala: 0.83 ± 0.2
[3]
  N (stoichiometry of binding), VP peptide vs. COP1^Tyr441Ala: 0.92 ± 0.3
[2]
  Kd: 23 ± 7 µM
[2]; ITC, ratio of Kd values
  Times stronger binding to COP1 than UVR8^406–413: ~ 8

## Ac-GFGVVPSFY-NH2 [COL3 peptide]
[1]; ITC
  N (stoichiometry of binding), VP peptide vs. COP1^Lys422Ala: 0.90 ± 0.2
[2]; ITC
  N (stoichiometry of binding), VP peptide vs. COP1 WD40 domain (WT): 0.75 ± 0.2

## Ac-GYGIVPSFY-NH2 [CO peptide]
[1]
  Kd: 21 ± 10 µM
[1]; ITC
  N (stoichiometry of binding), VP peptide vs. COP1^Lys422Ala: 0.89 ± 0.03
[1]; ITC, ratio of Kd values
  Fold increase of binding affinity for COP1^Lys422Ala compared with wild type COP1: ~ 4
[2]; ITC
  N (stoichiometry of binding), VP peptide vs. COP1 WD40 domain (WT): 1.03 ± 0.00

## Ac-NDQQVPSAVY-NH2 [CRY2 peptide]
[1]; ITC, ratio of Kd values
  Times reduction of binding by the COP1^Lys422Ala mutation compared with wild type COP1: ~ 30
[2]
  Kd: 21 ± 2 µM
[2]; ITC
  N (stoichiometry of binding), VP peptide vs. COP1 WD40 domain (WT): 1.04 ± 0.20

## Ac-RYAVVPDE-NH2 [UVR8 peptide]
[1]; ITC
  N (stoichiometry of binding), VP peptide vs. COP1^Lys422Ala: 0.87 ± 0.2
[1]; ITC, ratio of Kd values
  Fold increase of binding affinity for COP1^Lys422Ala compared with wild type COP1: ~ 10

## UVR8: recombinant full-length Arabidopsis UV-B photoreceptor UVR8 expressed in insect cells
[4]
  Kd: ~1000 nM and 1300 nM
[5]; 150 mM NaCl, 20 mM HEPES 7.4, 2 mM BME, protein pre-monomerized by UV-B
  Interaction with the COP1 WD40 domain in size-exclusion chromatography, UV-B-activated: interact
[5]; absence of UV-B (dimer)
  Interaction with the COP1 WD40 domain in size-exclusion chromatography, non-activated: no interaction
